Measured values as given in article PMC11111408, “Concurrent inhibition of oncogenic and wild-type RAS-GTP for cancer therapy” (Nature, 2024).
Where two headings read alike, the source gives them in different places.

Test system: panel of 183 cancer cell lines
Experiment: Cell panel of 183 cancer cell lines, viability (CTG) at Crown Bioscience
Type: cell-based
Conditions: Homo sapiens
Source text: The panel consisted of cell lines with any substitution at position 12 of KRAS, NRAS or HRAS (KRAS(G12X), NRAS(G12X), HRAS(G12X)); substitutions in KRAS, NRAS or HRAS at any position other than 12, 13 and 61 (KRAS(other/VUS), NRAS(other/VUS), HRAS(other/VUS)); other oncogenic mutations in the RAS pathway (ABL1, ALK, ARAF, BRAF, CBL, EGFR, ERBB2, ERBB3, ERBB4, ERRFI1, FGFR1, FGFR2, FGFR3, FGFR4, FLT3, HRAS, IGF1R, JAK2, KIT, MAP2K1, MAP2K2, MAPK1, MET, NF1, NRAS, NTRK1, NTRK2, NTRK3, PDGFRA, PTPN11, RAC1, RAF1, RASA1, RET, RIT1, ROS1 and SOS1); and no oncogenic mutations in the RAS pathway. […] Cells were incubated for 120 h, and cell viability was determined using the CellTiter-Glo Luminescent Cell Viability Assay (CTG) (Promega, G7572) according to the manufacturer’s instructions.

`CCn1c(-c2cc(N3CCN(C4CC4)CC3)cnc2[C@H](C)OC)c2c3cc(ccc31)-c1csc(n1)C[C@H](NC(=O)[C@H]1[C@@H]3COC[C@@H]31)C(=O)N1CCC[C@H](N1)C(=O)OCC(C)(C)C2` [RMC-7977] was tested, and the EC50 (OVCAR-5, read-out: RMC-7977 EC50 (M), OVCAR5, KRAS G12V, Ovary) was 1.02e-09 M, the EC50 (OVCAR-8, read-out: RMC-7977 EC50 (M), OVCAR8, KRAS P121H, Ovary) was over 1e-06 M and the EC50 (PANC-1, read-out: RMC-7977 EC50 (M), PANC1, KRAS G12D, Pancreas) was 1.66e-09 M. The EC50 (PANC-03-27, read-out: RMC-7977 EC50 (M), PANC0327, KRAS G12V, Pancreas) was 3.39e-10 M, the EC50 (PL45, read-out: RMC-7977 EC50 (M), PL45, KRAS G12D, Pancreas) was 3.31e-08 M and the EC50 (PSN1, read-out: RMC-7977 EC50 (M), PSN1, KRAS G12R, Pancreas) was 3.24e-09 M. For the same compound, the EC50 (PTPN11^MUT cell lines, read-out: median EC50) was 7.95e-09 M, the EC50 (Panc 05.04, read-out: RMC-7977 EC50 (M), PANC0504, KRAS G12D, Pancreas) was 1.62e-09 M and the EC50 (Panc1005, read-out: RMC-7977 EC50 (M), PANC1005, KRAS G12D, Pancreas) was 2.34e-09 M. For the same compound, the EC50 (RAS pathway wild-type (WT) cell lines, read-out: median EC50) was 7.15e-08 M, the EC50 (RL95-2, read-out: RMC-7977 EC50 (M), RL952, HRAS Q61H, Uterus) was 4.57e-09 M and the EC50 (RT112/84, read-out: RMC-7977 EC50 (M), RT11284, FGFR fusion, Bladder) was 4.87e-09 M. It also gave an EC50 (SCC-9, read-out: RMC-7977 EC50 (M), SCC9, HRAS L133R, HN/Tongue) of 1.23e-08 M, an EC50 (SHP77, read-out: RMC-7977 EC50 (M), SHP77, KRAS G12V, Lung) of over 1e-06 M and an EC50 (SK-BR-3, read-out: RMC-7977 EC50 (M), SKBR3, MET amp, Breast) of over 1e-06 M. For the same compound, the EC50 (SK-CO-1, read-out: RMC-7977 EC50 (M), SKCO1, KRAS G12V, Large intestine/Colorectum) was 1.05e-09 M, the EC50 (SK-LMS-1, read-out: RMC-7977 EC50 (M), SKLMS1, NF1 LOF, Vulva) was 6.33e-09 M and the EC50 (SK-LU-1, read-out: RMC-7977 EC50 (M), SKLU1, KRAS G12D, Lung) was over 1e-06 M. It also gave an EC50 (SK-MEL-2, read-out: RMC-7977 EC50 (M), SKMEL2, NRAS Q61R, Skin) of 9.12e-09 M, an EC50 (SK-N-AS, read-out: RMC-7977 EC50 (M), SKNAS, NRAS Q61K, Brain&Nerves) of 1.91e-09 M and an EC50 (SK-N-FI, read-out: RMC-7977 EC50 (M), SKNFI, RAS pathway WT, Brain&Nerves) of 3.82e-08 M. The EC50 (SK-N-SH, read-out: RMC-7977 EC50 (M), SKNSH, NRAS Q61K, Brain&Nerves) was 2.4e-07 M, the EC50 (SK-OV-3, read-out: RMC-7977 EC50 (M), SKOV3, RAS pathway WT, Ovary) was 5.38e-08 M and the EC50 (SNU1, read-out: RMC-7977 EC50 (M), SNU1, KRAS G12D, Stomach) was 7.76e-09 M. The EC50 (SNU668, read-out: RMC-7977 EC50 (M), SNU668, KRAS Q61K, Stomach) was 4.57e-09 M, the EC50 (SNU-5, read-out: RMC-7977 EC50 (M), SNU5, MET amp, Stomach) was 3.86e-09 M and the EC50 (SNU-387, read-out: RMC-7977 EC50 (M), SNU387, NRAS Q61K, Liver) was 5.01e-09 M. The EC50 (SNU-398, read-out: RMC-7977 EC50 (M), SNU398, RAS pathway WT, Liver) was over 1e-06 M, the EC50 (SNU-601, read-out: RMC-7977 EC50 (M), SNU601, KRAS G12D, Stomach) was 3.09e-09 M and the EC50 (SU-DHL-1, read-out: RMC-7977 EC50 (M), SUDHL1, ALK fusion, Blood/lymphoma) was 7.61e-08 M. It also gave an EC50 (SU.86.86, read-out: RMC-7977 EC50 (M), SU8686, KRAS G12D, Pancreas) of 2.45e-09 M, an EC50 (SUM-159-PT, read-out: RMC-7977 EC50 (M), SUM159PT, HRAS G12D, Breast) of 2.45e-09 M and an EC50 (SW48, read-out: RMC-7977 EC50 (M), SW48, HRAS G161R, Large intestine/Colorectum) of over 1e-06 M. It also gave an EC50 (SW480, read-out: RMC-7977 EC50 (M), SW480, KRAS G12V, Large intestine/Colorectum) of 2.57e-09 M, an EC50 (SW626, read-out: RMC-7977 EC50 (M), SW626, KRAS G12V, Ovary) of 1.82e-09 M and an EC50 (SW684, read-out: RMC-7977 EC50 (M), SW684, NF1 LOF, Soft tissue) of 3.68e-08 M. It also gave an EC50 (SW756, read-out: RMC-7977 EC50 (M), SW756, KRAS G12C, Ovary) of 1.17e-08 M, an EC50 (SW780, read-out: RMC-7977 EC50 (M), SW780, FGFR fusion, Bladder) of 5e-09 M and an EC50 (SW837, read-out: RMC-7977 EC50 (M), SW837, KRAS G12C, Large intestine/Colorectum) of 1.7e-09 M. The EC50 (SW900, read-out: RMC-7977 EC50 (M), SW900, KRAS G12V, Lung) was 4.07e-09 M, the EC50 (SW948, read-out: RMC-7977 EC50 (M), SW948, KRAS Q61L, Large intestine/Colorectum) was 1.45e-08 M and the EC50 (SW 1116, read-out: RMC-7977 EC50 (M), SW1116, KRAS G12A, Large intestine/Colorectum) was 1.82e-08 M. For the same compound, the EC50 (SW1271, read-out: RMC-7977 EC50 (M), SW1271, NRAS Q61R, Lung) was 2.19e-09 M, the EC50 (SW1463, read-out: RMC-7977 EC50 (M), SW1463, KRAS G12C, Large intestine/Colorectum) was 7.59e-09 M and the EC50 (SW1573, read-out: RMC-7977 EC50 (M), SW1573, KRAS G12C, Lung) was over 1e-06 M. It also gave an EC50 (SW1783, read-out: RMC-7977 EC50 (M), SW1783, RAS pathway WT, Brain&Nerves) of 4.53e-08 M, an EC50 (SW1990, read-out: RMC-7977 EC50 (M), SW1990, KRAS G12D, Pancreas) of 1.02e-09 M and an EC50 (SW-403, read-out: RMC-7977 EC50 (M), SW403, KRAS G12V, Large intestine/Colorectum) of 1.15e-09 M. For the same compound, the EC50 (SW-620, read-out: RMC-7977 EC50 (M), SW620, KRAS G12V, Large intestine/Colorectum) was 9.55e-10 M, the EC50 (TOV21G, read-out: RMC-7977 EC50 (M), TOV21G, KRAS G13C, Ovary) was 1.41e-08 M and the EC50 (U-87 MG, read-out: RMC-7977 EC50 (M), U87MG, NF1 LOF, Brain&Nerves) was 2.81e-08 M. The EC50 (U-118-MG, read-out: RMC-7977 EC50 (M), U118MG, ROS1 fusion, GBM) was 5.95e-08 M, the EC50 (UMUC3, read-out: RMC-7977 EC50 (M), UMUC3, KRAS G12C, Bladder) was 4.17e-10 M and the EC50 (cell lines with NF1 loss of function and PTPN11 mutations, read-out: median EC50) was 2.81e-08 M. For the same compound, the EC50 (cell lines with mutationally activated RTKs (RTK^MUT/fusion), read-out: median EC50) was 6.14e-09 M, the EC50 (cell lines with wild-type MET gene amplification (MET^AMP), read-out: median EC50) was 6.61e-09 M and the EC50 (non-G12 mutant KRAS cell lines, read-out: median EC50) was 2.51e-08 M. The EC50 (read-out: RMC-7977 EC50 (M), AGS, KRAS G12D, Lung) was 1.15e-09 M, the EC50 (read-out: RMC-7977 EC50 (M), ASH3, NRAS Q61R, HN/Thyroid) was 9.77e-09 M and the EC50 (read-out: RMC-7977 EC50 (M), HCC2279, EGFR mut, Lung) was 4.52e-09 M.
